Assay results taken from PubChem BioAssay (NCI).
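Step 1: Grow cells in 96-well plates. Step 2: Expose to compound for 48 hours at 5 concentrations. Step 3: Interpolate endpoints linearly; if unreached, use highest concentration. At the GI50, growth is halved. TGI denotes the concentration required for complete inhibition of growth.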

Experiments:
Experiment in all cases: DTP human tumour cell line panel, 48 h
786-0 renal = test system: 786-0 renal
A498 renal = test system: A498 renal
A549 NSCLC = test system: A549 NSCLC
ACHN renal = test system: ACHN renal
BT-549 breast = test system: BT-549 breast
CAKI-1 renal = test system: CAKI-1 renal
CCRF-CEM leukemia = test system: CCRF-CEM leukemia
COLO 205 colon = test system: COLO 205 colon
DU-145 prostate = test system: DU-145 prostate
EKVX NSCLC = test system: EKVX NSCLC
HCC-2998 colon = test system: HCC-2998 colon
HCT-116 colon = test system: HCT-116 colon
HCT-15 colon = test system: HCT-15 colon
HL-60(TB) leukemia = test system: HL-60(TB) leukemia
HOP-62 NSCLC = test system: HOP-62 NSCLC
HOP-92 NSCLC = test system: HOP-92 NSCLC
HS 578T breast = test system: HS 578T breast
HT29 colon = test system: HT29 colon
IGROV1 ovarian = test system: IGROV1 ovarian
K-562 leukemia = test system: K-562 leukemia
LOX IMVI melanoma = test system: LOX IMVI melanoma
M14 melanoma = test system: M14 melanoma
MALME-3M melanoma = test system: MALME-3M melanoma
MCF7 breast = test system: MCF7 breast
MDA-MB-231 breast = test system: MDA-MB-231 breast
MDA-MB-435 = test system: MDA-MB-435
MOLT-4 leukemia = test system: MOLT-4 leukemia
NCI-H226 lung = test system: NCI-H226 lung

## C=C1C(=O)O[C@@H]2/C=C(/C)C3=CC(=O)[C@@](C)(C[C@H](OC(=O)/C(C)=C\C)[C@@H]12)O3
786-0 renal
  GI50: 1130 nM
  TGI: 4130 nM
A498 renal
  TGI: 13300 nM
A549 NSCLC
  GI50: 6000 nM
  TGI: 19800 nM
ACHN renal
  GI50: 658 nM
  TGI: 1430 nM
BT-549 breast
  TGI: 5340 nM
CAKI-1 renal
  GI50: 1100 nM
  TGI: 3800 nM
CCRF-CEM leukemia
  GI50: 778 nM
  TGI: 2920 nM
COLO 205 colon
  GI50: 676 nM
  TGI: 1570 nM
DU-145 prostate
  GI50: 1500 nM
  TGI: 5580 nM
EKVX NSCLC
  TGI: 8360 nM
HCC-2998 colon
  GI50: 4640 nM
  TGI: 9070 nM
HCT-116 colon
  GI50: 631 nM
  TGI: 1490 nM
HCT-15 colon
  GI50: 661 nM
  TGI: 1770 nM
HL-60(TB) leukemia
  GI50: 911 nM
  TGI: 2400 nM
HOP-62 NSCLC
  GI50: 6770 nM
  TGI: 19200 nM
HOP-92 NSCLC
  GI50: 1170 nM
  TGI: 5150 nM
HS 578T breast
  GI50: 8010 nM
  TGI: > 32500 nM
HT29 colon
  GI50: 1010 nM
  TGI: 3710 nM
IGROV1 ovarian
  GI50: 3940 nM
  TGI: 9170 nM
K-562 leukemia
  GI50: 955 nM
  TGI: 4790 nM
LOX IMVI melanoma
  GI50: 997 nM
  TGI: 4120 nM
M14 melanoma
  GI50: 1300 nM
  TGI: 7040 nM
MALME-3M melanoma
  TGI: 5330 nM
MCF7 breast
  GI50: 1120 nM
  TGI: 5550 nM
MDA-MB-231 breast
  GI50: 1700 nM
  TGI: 6990 nM
MDA-MB-435
  GI50: 1500 nM
  TGI: 10200 nM
MOLT-4 leukemia
  GI50: 857 nM
  TGI: 2880 nM
NCI-H226 lung
  GI50: 1160 nM
  TGI: 4330 nM
